Experimental findings from US20220112208A1, “COMPOUNDS WITH ANTIINFLAMMATORY ACTIVITY AND METHODS OF USE THEREOF” (King Abdullah University of Science and Technology, priority 2020, published 2022) are described below.

In data set [1] the test system is NO production in LPS-treated RAW 264.7 cells. The data set is described as follows: Inhibition of NO production (Griess reaction) in LPS-treated RAW 264.7 macrophages. In kind it is cell-based, mouse. On the procedure:
(§1) Mouse macrophage cell line RAW 264.7 was cultured in DMEM medium (cat. #21885-025, Gibco) supplemented with 10% heat inactivated fetal bovine serum (cat. #10270-106, Gibco) and 1% penicillin-streptomycin (cat. #15070-063, Gibco). Cells were cultured in 37° C. and 5% CO2. Each compound was diluted in Carbowax™ 400+10% ethanol (cat. #1.00983, Sigma), used also as control solvent. Final concentration in culture was 0.1% v/v carbowax and 0.01% v/v ethanol. RAW 264.7 macrophages were activated using 100 ng/mL lipopolysaccharide (LPS) (L2630, Sigma). In IC50 determination experiments, macrophages were pre-treated for 1 h with the respective compound prior to LPS stimulation.
30×104 RAW 264.7 mouse macrophages were plated in 24-well plates over-night with 0.5 mL complete medium. Cells were pretreated for 1 h with the respected compound concentration and then stimulated with 100 ng/mL LPS (L2630, Sigma) for 48 h. The amount of nitrite, an oxidative product of NO, was measured in culture supernatant of each sample using the Griess reaction. 100 μL of supernatant was mixed with 100 μl of sulfanilamide solution (1% sulfanilamide in 5% H3PO4) and incubated for 5 min at room temperature. Then, 100 μL of NED solution (0.1% N-1-naphtylethylenediamine dihydrochlorite in H2O) was added and the absorbance was measured in an automated microplate reader (Infinate 200 PRO, Tecan) at 540 nm. Nitrite concentration was calculated using a sodium nitrite standard curve. All incubations were performed in the dark.
(§2) All data are presented as mean±SEM and as percentage in case of IC50 evaluation. Statistical analysis was performed using Graphpad Prism 7.0. D'Agostino & Pearson, Shapiro Wilk and KS tests were used to evaluate normality. In case of normality, one-way ANOVA was performed, whereas in all other cases the non-parametric Kruskal-Wallis test was used. Differences with a P value <0.05 are considered significant (*indicates P<0.05, **indicates P<0.01, ***indicates P<0.001).

The next data set deals with RAW 264.7 macrophages. The data set is described as follows: MTT cytotoxicity / proliferation assay in RAW 264.7 macrophages. Type of data set: cell-based, mouse. Conditions: for Significant cytotoxicity at concentrations above: RAW 264.7, values given in nM. On the procedure:
as §1
3.5×103 RAW 264.7 mouse macrophages were seeded in 96-well plate and cultured overnight. Cells were subsequently treated with the respective compound concentration and incubated for 24, 48 and 72 h. Number of cells was measured prior to treatment and used as normalisation control. Thiazolyl Blue Tetrazolium Bromide (MTT) (A2231.001, Applichem) was added to the cells in a final concentration of 0.5 mg/mL and then cells were incubated at 37° C. and 5% CO2 for 4 h. The supernatant was discarded and cells were lysed with 2-propanol (33539, Honeywell) with 0.4% HCl (30721, Sigma). The absorbance of each sample was measured in an automated microplate reader (Infinite 200 PRO, Tecan) at 600 nm. The average OD of each treated sample was normalized to the OD of the control sample and statistical analysis was performed using Graphpad Prism 7.0.
as §2

Where [2] appears, read: Mus musculus, RAW264.7, LPS (100 ng/mL)-treated RAW 264.7, 1 h pre-treatment, 48 h, vs Carbowax 400 control, mean ± SEM, read-out: IC50 Inhibition of NO production.
[3] abbreviates: MTT, RAW 264.7, 72 h of treatment, concentration above which cytotoxic.
[4] abbreviates: Mus musculus, RAW264.7, LPS-treated RAW 264.7, values given in nM, read-out: IC50 for inhibition of NO production (anti-inflammatory activity).

Where two headings read alike, the source gives them in different places.

For the molecule `CC[C@@H]1O[C@@H]2C[C@H]3O[C@H]3C[C@H](C=C=CBr)O[C@@H]2C[C@H]1Br` [Compound a1, Thuwalallene A], the IC50 in data set [1] (LPS (100 ng/mL)-treated RAW 264.7, 1 h pre-treatment, 48 h, vs Carbowax 400 control, mean ± SEM, read-out: IC50 Inhibition of NO production) came out at 26000 nM.

With `CC[C@@H]1O[C@@H]2C/C=C\C[C@H](C=C=CBr)O[C@@H]2CC1Br` (stereo partly shown) [Compound a3, Thuwalallene C], the 50% inhibitory concentration (IC50) in data set [1] (setting [2]) worked out at 4180 nM.

As for `C#C/C=C\C[C@@H]1O[C@@H]2C[C@@H](Br)[C@H](CC)O[C@@H]2C[C@@H]1Br` [Compound a4, Thuwalenyne A], the “Cytotoxicity (in words)” value with RAW 264.7 macrophages is on record as “did not exhibit anti-inflammatory activity or cytotoxicity”. In addition, the “Cytotoxicity (at 72 h)” value with RAW 264.7 macrophages (mouse, 72 h) was over 62.5 µM. The “Anti-inflammatory activity (in words)” value in data set [1] (LPS-treated RAW 264.7, all concentrations tested) was “did not exhibit anti-inflammatory activity”.

Turning to `CC(C)(O)C1CC[C@](C)([C@@H](O)CC[C@](C)(O)[C@H]2CC[C@H]3O[C@@H]([C@]4(C)CC[C@@H](Br)C(C)(C)O4)CC[C@]3(C)O2)O1` (stereo partly shown) [Compound a10, thyrsiferol], the “Cytotoxicity (at 72 h)” value with RAW 264.7 macrophages (setting [3]) is over 0.1 µM. Also, the “Significant cytotoxicity at concentrations above” value with RAW 264.7 macrophages (MTT) is on record as “above 100 nM”. Also, the IC50 in data set [1] (setting [2]) and in data set [1] (setting [4]) was 4.39 nM throughout.

In the case of `CC(=O)OC(C)(C)C1CC[C@](C)([C@@H](O)CC[C@](C)(O)[C@H]2CC[C@H]3O[C@@H]([C@]4(C)CC[C@@H](Br)C(C)(C)O4)CC[C@]3(C)O2)O1` (stereo partly shown) [a11, 23-acetyl-thyrsiferol], the “Cytotoxicity (at 72 h)” value in the data set on RAW 264.7 macrophages (setting [3]) was over 0.01 µM. For the same molecule, the “Significant cytotoxicity at concentrations above” value in the data set with RAW 264.7 macrophages (MTT) is “above 10 nM”. Further, the IC50 in data set [1] (setting [2]) and in data set [1] (setting [4]) was 2.63 nM in each case.
